Each structure is given as a SMILES string.

Experiment in all cases: KinomeScan profiling
Assay type in all cases: binding

One assay addresses T1, BRAF(V600E) (Homo sapiens, UniProt P15056, V600E).
T1 construct: purchased KinomeScan®
Conditions: read-out: % control. The procedure, abridged: (§1)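 Luminescence (RLU) was converted to percent of control, with DMSO set as 100% and a reference compound as 0%. Test compounds were run at 1 μM against 468 kinases. Kinases showing below 35% of control were scored as bound.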

The target in a further assay is EGFR(S752-I759del) (Homo sapiens, UniProt P00533, DEL752-759). Conditions: read-out: % control. The procedure, abridged: as §1
Sequence of EGFR(S752-I759del) (P00533 with tags, fused parts or gaps DEL752-759): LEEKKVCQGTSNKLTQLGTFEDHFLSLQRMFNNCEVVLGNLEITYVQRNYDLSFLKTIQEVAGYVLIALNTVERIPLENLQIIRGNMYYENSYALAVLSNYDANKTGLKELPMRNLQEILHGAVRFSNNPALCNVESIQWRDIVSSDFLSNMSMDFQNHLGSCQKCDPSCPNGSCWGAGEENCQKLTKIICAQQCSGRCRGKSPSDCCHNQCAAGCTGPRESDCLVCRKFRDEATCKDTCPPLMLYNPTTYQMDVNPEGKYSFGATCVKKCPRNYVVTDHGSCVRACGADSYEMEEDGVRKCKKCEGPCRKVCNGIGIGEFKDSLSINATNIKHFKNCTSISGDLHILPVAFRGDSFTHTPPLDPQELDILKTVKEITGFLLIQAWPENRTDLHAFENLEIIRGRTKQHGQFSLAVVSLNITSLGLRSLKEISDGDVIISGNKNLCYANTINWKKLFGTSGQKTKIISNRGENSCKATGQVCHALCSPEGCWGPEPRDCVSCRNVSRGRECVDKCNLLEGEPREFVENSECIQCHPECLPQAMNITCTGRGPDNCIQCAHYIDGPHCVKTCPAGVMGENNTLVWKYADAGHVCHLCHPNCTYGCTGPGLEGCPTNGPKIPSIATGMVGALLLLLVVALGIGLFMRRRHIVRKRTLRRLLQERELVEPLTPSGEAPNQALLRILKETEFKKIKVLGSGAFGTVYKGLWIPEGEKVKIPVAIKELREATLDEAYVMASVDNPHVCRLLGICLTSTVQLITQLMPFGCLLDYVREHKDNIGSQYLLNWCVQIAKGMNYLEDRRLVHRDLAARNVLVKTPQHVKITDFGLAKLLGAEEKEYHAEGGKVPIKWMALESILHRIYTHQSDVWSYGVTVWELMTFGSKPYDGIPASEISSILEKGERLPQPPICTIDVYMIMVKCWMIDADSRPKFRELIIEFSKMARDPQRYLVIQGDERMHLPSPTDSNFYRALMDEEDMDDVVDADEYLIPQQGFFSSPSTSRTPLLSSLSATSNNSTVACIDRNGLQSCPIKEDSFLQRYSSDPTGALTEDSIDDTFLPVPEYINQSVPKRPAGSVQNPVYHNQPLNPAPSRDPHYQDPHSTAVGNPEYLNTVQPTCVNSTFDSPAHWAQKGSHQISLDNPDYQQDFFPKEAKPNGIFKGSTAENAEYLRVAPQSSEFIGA
For the next assay, the target named is T2, GRK2 (Homo sapiens, UniProt P25098).
T2 sequence (P25098 1-689): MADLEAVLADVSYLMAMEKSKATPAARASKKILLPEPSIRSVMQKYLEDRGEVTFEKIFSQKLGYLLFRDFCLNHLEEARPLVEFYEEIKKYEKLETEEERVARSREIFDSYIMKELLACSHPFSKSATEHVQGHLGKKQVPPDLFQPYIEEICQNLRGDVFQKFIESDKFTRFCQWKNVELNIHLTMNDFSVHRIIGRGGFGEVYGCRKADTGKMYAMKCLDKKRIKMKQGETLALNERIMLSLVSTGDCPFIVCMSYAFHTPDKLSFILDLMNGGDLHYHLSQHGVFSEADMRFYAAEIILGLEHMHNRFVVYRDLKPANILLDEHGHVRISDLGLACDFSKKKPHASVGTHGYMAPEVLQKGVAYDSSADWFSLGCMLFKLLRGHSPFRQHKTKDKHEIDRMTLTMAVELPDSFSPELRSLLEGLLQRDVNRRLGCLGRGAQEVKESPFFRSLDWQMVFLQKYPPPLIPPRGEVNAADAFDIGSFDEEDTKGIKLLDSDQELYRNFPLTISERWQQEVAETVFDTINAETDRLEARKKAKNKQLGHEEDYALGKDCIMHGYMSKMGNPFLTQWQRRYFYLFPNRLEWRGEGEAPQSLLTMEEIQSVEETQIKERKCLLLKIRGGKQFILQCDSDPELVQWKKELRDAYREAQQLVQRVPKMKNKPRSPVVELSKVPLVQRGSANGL
Conditions: GRK2, 1 μM; read-out: % control. In short, it runs like this: as §1

The target in the next assay is T3, MAP3K3 (Homo sapiens, UniProt Q99759).
T3 sequence (Q99759 1-626): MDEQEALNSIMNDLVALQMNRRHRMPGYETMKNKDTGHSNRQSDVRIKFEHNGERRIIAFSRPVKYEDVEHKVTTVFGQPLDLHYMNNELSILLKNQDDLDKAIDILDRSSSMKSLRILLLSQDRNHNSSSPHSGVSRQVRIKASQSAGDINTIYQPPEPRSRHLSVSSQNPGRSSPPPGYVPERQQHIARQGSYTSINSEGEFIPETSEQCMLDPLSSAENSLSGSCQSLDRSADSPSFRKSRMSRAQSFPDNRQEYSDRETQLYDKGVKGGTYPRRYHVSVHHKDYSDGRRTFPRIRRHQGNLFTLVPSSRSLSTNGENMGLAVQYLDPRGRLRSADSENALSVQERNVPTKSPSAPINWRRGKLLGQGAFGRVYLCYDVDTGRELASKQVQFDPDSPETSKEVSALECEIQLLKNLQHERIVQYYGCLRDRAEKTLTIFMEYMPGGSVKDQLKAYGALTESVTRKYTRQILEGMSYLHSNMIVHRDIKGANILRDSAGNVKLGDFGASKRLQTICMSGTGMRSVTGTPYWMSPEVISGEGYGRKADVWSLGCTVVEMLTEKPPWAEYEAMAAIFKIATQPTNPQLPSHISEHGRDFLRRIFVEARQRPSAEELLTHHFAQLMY
The settings on record: MAP3K3, 1 μM; read-out: % control. The procedure, abridged:
as §1

Another assay has as its target T4, MST2 (Homo sapiens, UniProt Q13188).
T4 sequence (Q13188 1-491): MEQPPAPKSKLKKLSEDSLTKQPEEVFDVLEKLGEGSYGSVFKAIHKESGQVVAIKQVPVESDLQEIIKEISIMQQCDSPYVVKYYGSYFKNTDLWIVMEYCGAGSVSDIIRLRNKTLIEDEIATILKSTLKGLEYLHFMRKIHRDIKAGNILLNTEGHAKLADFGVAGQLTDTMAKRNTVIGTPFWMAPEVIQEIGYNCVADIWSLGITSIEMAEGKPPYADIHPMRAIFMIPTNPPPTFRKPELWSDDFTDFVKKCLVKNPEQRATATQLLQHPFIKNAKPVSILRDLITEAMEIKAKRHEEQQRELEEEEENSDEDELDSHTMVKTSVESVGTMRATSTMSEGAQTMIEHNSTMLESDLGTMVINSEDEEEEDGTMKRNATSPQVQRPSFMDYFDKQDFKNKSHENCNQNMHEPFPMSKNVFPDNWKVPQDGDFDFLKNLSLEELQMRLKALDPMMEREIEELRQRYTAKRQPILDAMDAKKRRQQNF
Conditions: MST2, 1 μM; read-out: % control. In short, it runs like this: as §1

The target in a further assay is PAK3 (Homo sapiens, UniProt O75914). The settings on record: PAK3, 1 μM; read-out: % control. In short, it runs like this: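 Compounds were screened at 1 μM in DMSO across a 468-kinase KinomeScan panel. Binding was expressed as % control, scaled between a positive control (0%) and DMSO (100%) using luminescence signal. A value under 35% counted as active.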
Sequence of PAK3 (O75914 whole entry): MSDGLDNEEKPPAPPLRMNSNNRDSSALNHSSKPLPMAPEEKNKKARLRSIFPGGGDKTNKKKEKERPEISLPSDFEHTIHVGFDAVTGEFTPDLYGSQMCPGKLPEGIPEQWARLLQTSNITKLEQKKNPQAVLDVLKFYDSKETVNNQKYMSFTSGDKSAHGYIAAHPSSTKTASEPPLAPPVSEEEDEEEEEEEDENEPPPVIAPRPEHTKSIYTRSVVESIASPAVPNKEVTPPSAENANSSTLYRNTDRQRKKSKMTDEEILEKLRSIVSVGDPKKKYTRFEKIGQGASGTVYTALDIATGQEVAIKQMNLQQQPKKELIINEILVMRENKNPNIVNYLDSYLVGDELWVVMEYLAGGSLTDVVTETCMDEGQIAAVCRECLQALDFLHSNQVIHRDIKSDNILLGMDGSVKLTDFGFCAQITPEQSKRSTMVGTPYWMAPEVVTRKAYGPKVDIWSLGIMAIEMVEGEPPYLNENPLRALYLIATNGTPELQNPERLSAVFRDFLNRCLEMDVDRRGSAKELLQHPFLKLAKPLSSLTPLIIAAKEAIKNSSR
Another assay concerns the target PFPK5(P. falciparum) (Plasmodium falciparum, UniProt P61075). The settings on record: read-out: % control. The procedure, abridged:
as §1

The target of a further assay is T5, SRMS (Homo sapiens, UniProt Q9H3Y6).
T5 construct: purchased KinomeScan® (panel service)
T5 sequence (Q9H3Y6 whole entry): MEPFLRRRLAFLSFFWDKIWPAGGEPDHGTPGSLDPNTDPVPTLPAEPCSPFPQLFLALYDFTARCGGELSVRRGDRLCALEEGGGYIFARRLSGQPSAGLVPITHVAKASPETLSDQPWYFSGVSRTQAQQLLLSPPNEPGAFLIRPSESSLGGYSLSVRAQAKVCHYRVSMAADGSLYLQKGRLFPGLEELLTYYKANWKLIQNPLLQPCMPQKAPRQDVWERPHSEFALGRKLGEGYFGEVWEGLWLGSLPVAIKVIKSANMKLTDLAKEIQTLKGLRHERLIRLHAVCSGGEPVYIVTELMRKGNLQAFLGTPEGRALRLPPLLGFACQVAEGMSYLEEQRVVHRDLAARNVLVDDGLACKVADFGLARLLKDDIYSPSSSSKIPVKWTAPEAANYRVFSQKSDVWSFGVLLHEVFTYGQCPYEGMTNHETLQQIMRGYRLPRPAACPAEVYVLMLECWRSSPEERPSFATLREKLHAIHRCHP
Conditions: read-out: % control. The procedure, abridged: as §1

A further assay deals with TRKB (Homo sapiens, UniProt Q16620). Conditions: read-out: % control. The procedure, abridged: as §1
Sequence of TRKB (Q16620 32-822): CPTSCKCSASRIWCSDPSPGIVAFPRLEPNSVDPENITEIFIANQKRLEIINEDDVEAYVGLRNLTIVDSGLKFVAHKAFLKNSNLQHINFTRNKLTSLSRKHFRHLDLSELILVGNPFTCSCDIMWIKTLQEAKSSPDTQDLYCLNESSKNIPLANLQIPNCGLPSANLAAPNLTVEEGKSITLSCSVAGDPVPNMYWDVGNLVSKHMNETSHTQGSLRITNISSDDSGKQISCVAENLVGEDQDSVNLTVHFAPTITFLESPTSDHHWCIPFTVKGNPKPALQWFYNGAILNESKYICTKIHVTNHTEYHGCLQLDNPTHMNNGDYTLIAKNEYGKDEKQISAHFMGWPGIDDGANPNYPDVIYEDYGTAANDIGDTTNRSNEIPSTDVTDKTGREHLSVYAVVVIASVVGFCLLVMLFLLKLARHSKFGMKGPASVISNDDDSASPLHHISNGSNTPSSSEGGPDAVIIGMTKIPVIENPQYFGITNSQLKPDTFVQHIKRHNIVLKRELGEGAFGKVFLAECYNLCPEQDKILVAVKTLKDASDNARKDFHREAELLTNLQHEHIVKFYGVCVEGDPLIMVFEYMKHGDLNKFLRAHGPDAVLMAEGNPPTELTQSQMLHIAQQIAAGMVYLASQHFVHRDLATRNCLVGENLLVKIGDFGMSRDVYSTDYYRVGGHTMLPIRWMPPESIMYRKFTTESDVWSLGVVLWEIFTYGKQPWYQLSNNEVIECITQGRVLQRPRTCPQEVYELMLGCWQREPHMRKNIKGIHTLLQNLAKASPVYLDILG

T1 sequence (P15056 whole entry V600E): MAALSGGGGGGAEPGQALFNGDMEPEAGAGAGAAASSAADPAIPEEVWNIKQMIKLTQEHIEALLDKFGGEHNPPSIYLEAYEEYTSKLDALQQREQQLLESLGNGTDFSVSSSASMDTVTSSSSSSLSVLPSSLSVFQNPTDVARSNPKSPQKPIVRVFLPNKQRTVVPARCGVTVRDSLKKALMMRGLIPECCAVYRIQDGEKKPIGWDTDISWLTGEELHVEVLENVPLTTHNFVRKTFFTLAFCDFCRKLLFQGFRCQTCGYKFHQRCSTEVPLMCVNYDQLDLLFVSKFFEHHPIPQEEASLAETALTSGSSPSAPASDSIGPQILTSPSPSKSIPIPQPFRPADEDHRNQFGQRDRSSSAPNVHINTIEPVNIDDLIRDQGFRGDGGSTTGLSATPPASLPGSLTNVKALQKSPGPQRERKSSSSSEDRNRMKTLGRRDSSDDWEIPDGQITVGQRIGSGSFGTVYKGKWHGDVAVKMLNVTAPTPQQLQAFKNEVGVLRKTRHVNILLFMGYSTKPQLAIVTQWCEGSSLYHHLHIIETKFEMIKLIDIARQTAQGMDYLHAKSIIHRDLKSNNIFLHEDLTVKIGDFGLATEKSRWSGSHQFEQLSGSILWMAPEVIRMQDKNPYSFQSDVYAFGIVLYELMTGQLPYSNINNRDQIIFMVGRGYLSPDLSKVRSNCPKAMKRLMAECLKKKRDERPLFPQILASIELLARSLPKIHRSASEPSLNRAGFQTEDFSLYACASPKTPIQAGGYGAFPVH
Sequence of PFPK5(P. falciparum) (P61075 whole entry): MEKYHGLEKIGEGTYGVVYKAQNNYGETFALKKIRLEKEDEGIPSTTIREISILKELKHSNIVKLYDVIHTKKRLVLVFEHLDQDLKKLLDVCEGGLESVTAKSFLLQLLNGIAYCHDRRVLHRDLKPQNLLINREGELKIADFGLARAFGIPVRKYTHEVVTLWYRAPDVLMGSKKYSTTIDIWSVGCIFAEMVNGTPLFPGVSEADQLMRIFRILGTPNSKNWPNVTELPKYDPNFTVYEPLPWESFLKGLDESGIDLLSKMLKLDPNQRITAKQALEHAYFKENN

As to `CNc1c(-c2ccc(C(=O)N3CCC(N4CCOCC4)CC3)cc2)cnc2[nH]cc(Cl)c12` [Compound 96, (4-(3-chloro-4-(methylamino)-1H-pyrrolo[2,3-b]pyridin-5-yl)phenyl)(4-morpholinopiperidin-1-yl)methanone], the remaining binding at 1 µM on BRAF(V600E) amounted to 87%; at EGFR(S752-I759del), 98%; on GRK2, 94%; at MAP3K3 it was 51%; on MST2, 99%; on PAK3, 74%. Besides, the values for the remaining binding at 1 µM at PFPK5(P. falciparum), on SRMS and on TRKB were 100%, 100% and 48%, respectively.
On to `O=C(c1ccc(-c2cnc3[nH]cc(Cl)c3c2NC2CCCC2)cc1)N1CCC(N2CCOCC2)CC1` [Compound 101, (4-(3-chloro-4-(cyclopentylamino)-1H-pyrrolo[2,3-b]pyridin-5-yl)phenyl)(4-morpholinopiperidin-1-yl)methanone], for which the remaining binding at 1 µM at BRAF(V600E) was 99%; on EGFR(S752-I759del), 100%; at GRK2 it was 100%; at MAP3K3 it was 47%; on MST2, 74%; at PAK3, 86%. Further, the remaining binding at 1 µM on PFPK5(P. falciparum) worked out at 100%; at SRMS, 72%; on TRKB it was 100%.
As for `CNc1c(-c2cnn([C@H]3CCN(C(C)=O)C[C@@H]3F)c2)cnc2[nH]cc(Cl)c12` [Compound 77, 1-((3S,4S)-4-(4-(3-chloro-4-(methylamino)-1H-pyrrolo[2,3-b]pyridin-5-yl)-1H-pyrazol-1-yl)-3-fluoropiperidin-1-yl)ethan-1-one], the remaining binding at 1 µM at BRAF(V600E) turned out to be 98%; on EGFR(S752-I759del) it was 100%; at GRK2 it was 93%; on MAP3K3 it was 44%; on MST2, 100%; on PAK3 it was 97%. For the same compound, the remaining binding at 1 µM worked out at 100% at PFPK5(P. falciparum), 90% at SRMS and 23% at TRKB.

The record behind these values is US12275731B2, “Azaindole inhibitors of wild-type and mutant forms of LRRK2” (DANA-FARBER CANCER INSTITUTE, INC., priority 2018, dated 2025).
